In patent US20260199369A1, “COMPOUNDS FOR THE TREATMENT OF NEUROMUSCULAR DISORDERS” (NMD PHARMA A/S, priority 2022, published 2026):

What follows are molecules tested on isolated rat soleus muscles (assay: Measurement of force in an in vitro model: recovery of contractile force of isolated rat soleus nerve-muscle preparation after tubocurarine). Settings: 40 min, 10 μM of test compound, tubocurarine 115 nM, after 40 mins of compound exposure, read-out: Point increase (%): percentage increase of initial force that was restored.
Experimental: The current disclosure relates to compounds that inhibit CIC-1 ion channels and increase muscle excitability and thereby improve muscle function in clinical conditions where muscle activation is failing. Such conditions result in loss of contractile function of skeletal muscle, weakness and excessive fatigue. In this series of experiments the compounds were tested for their ability to restore contractile function of isolated rat muscle when the neuromuscular transmission had been compromised akin to neuromuscular disorders.
Experimentally, soleus muscles from 4-5 wk old rats were isolated with the motor nerve remaining attached. The nerve-muscle preparations were mounted in experimental setups that enabled electrical stimulation of the motor nerve. Stimulation of the motor nerve led to activation of the muscle fibres and ensuing force production that was recorded. The nerve-muscle preparations were also in these experiments incubated in the standard Krebs Ringer (see example 15) and the solution was heated to 30° C. and continuously equilibrated with a mixture of 95% O2 and 5% CO2, pH ~7.4.
After mounting the nerve-muscle preparation in the experimental setup, the contractile function of the muscle was initially assessed under the control conditions. Sub-maximal concentration of tubocurarine (115 nM), an acetylcholine receptor antagonist, was then added to the experimental bath to impose partial inhibition of the ability of the motor nerve to activate the muscle fibres. The experimental condition mimics the failing neuromuscular transmission in a range of neuromuscular disorders. After addition of tubocurarine the contractile force declined over the next 90 minutes to 10-50% of the control force. The test compound was then added to obtain the required compound concentration in the bath and the contractile force recovered was measured. To quantify the ability of the compound to restore force the percentage of the initial force that was restored was determined after 40 mins of compound exposure and the point increase is reported in Tables 3 to 7.

Row | SMILES | activation at 10 µM
1 | Cc1ccccc1CN1CCOc2cc(Cl)c(F)c(C(=O)O)c21 [Compound A-62, 7-Chloro-6-fluoro-4-[(o-tolyl)methyl]-3,4-dihydro-2H-1,4-benzoxazine-5-carboxylic acid] | 28%

Same assay, conditions: 40 min, 25 μM of test compound, tubocurarine 115 nM, after 40 mins of compound exposure, read-out: Point increase (%): percentage increase of initial force that was restored

Row | SMILES | activation at 25 µM
2 | COc1c(Cl)cc2c(c1C(=O)O)OCCN2CCCc1ccco1 [Compound A-40, 6-Chloro-4-[3-(furan-2-yl)propyl]-7-methoxy-3,4-dihydro-2H-1,4-benzoxazine-8-carboxylic acid] | 14%
3 | COc1c(Cl)cc2c(c1C(=O)O)OCCN2CCc1cc(F)cc(F)c1 [Compound A-53, 6-Chloro-4-[2-(3,5-difluorophenyl)ethyl]-7-methoxy-3,4-dihydro-2H-1,4-benzoxazine-8-carboxylic acid] | 30%
4 | O=C(O)c1c(F)c(Cl)cc2c1OCCN2CC1CCC1 [Compound A-46, 6-Chloro-4-(cyclobutylmethyl)-7-fluoro-3,4-dihydro-2H-1,4-benzoxazine-8-carboxylic acid] | 8%
5 | COc1c(Cl)cc2c(c1C(=O)O)OCCN2 [Compound A-14, 6-Chloro-7-methoxy-3,4-dihydro-2H-1,4-benzoxazine-8-carboxylic acid] | 28%
6 | COc1c(Cl)cc2c(c1C(=O)O)OCCN2Cc1cccs1 [Compound A-42, 6-chloro-7-methoxy-4-[(thiophen-2-yl)methyl]-3,4-dihydro-2H-1,4-benzoxazine-8-carboxylic acid] | 30%

Same assay, conditions: 40 min, 35 μM of test compound, tubocurarine 115 nM, after 40 mins of compound exposure, read-out: Point increase (%): percentage increase of initial force that was restored

Row | SMILES | activation at 35 µM
7 | CCCN1CCOc2cc(Cl)c(F)c(C(=O)O)c21 [Compound A-56, 7-Chloro-6-fluoro-4-propyl-3,4-dihydro-2H-1,4-benzoxazine-5-carboxylic acid] | 48%

Same assay, conditions: 40 min, 50 μM of test compound, tubocurarine 115 nM, after 40 mins of compound exposure, read-out: Point increase (%): percentage increase of initial force that was restored

Row | SMILES | activation at 50 µM
8 | O=C(O)c1c(F)c(Cl)cc2c1OCCN2CC1CC1 [Compound A-20, 6-Chloro-4-(cyclopropylmethyl)-7-fluoro-3,4-dihydro-2H-1,4-benzoxazine-8-carboxylic acid] | 22%
9 | COc1c(Cl)cc2c(c1C(=O)O)OC(C)(C)CN2C [Compound A-37, 6-Chloro-7-methoxy-2,2,4-trimethyl-3,4-dihydro-2H-1,4-benzoxazine-8-carboxylic acid] | 51%
10 | COc1c(Cl)cc2c(c1C(=O)O)OC1(CCC1)CN2C [Compound A-39, 6-Chloro-7-methoxy-4-methyl-3,4-dihydrospiro[1,4-benzoxazine-2,1′-cyclobutane]-8-carboxylic acid] | 35%
11 | O=C(O)c1c(F)c(Cl)cc2c1NCCO2 [Compound A-11, 7-Chloro-6-fluoro-3,4-dihydro-2H-1,4-benzoxazine-5-carboxylic acid] | 23%
12 | CCOc1c(Cl)cc2c(c1C(=O)O)OCCCN2C [Compound A-16, 7-chloro-8-ethoxy-5-methyl-2,3,4,5-tetrahydro-1,5-benzoxazepine-9-carboxylic acid] | 49%
13 | COCCN1CCOc2c1cc(Cl)c(F)c2C(=O)O [Compound A-38, 6-Chloro-7-fluoro-4-(2-methoxyethyl)-3,4-dihydro-2H-1,4-benzoxazine-8-carboxylic acid] | 17%
14 | COc1c(Cl)cc2c(c1C(=O)O)OCCN2C(C)C [Compound A-32, 6-Chloro-7-methoxy-4-(propan-2-yl)-3,4-dihydro-2H-1,4-benzoxazine-8-carboxylic acid] | 39%
15 | COc1c(Cl)cc2c(c1C(=O)O)OCCN2CCc1ccccc1 [Compound A-33, 6-Chloro-7-methoxy-4-(2-phenylethyl)-3,4-dihydro-2H-1,4-benzoxazine-8-carboxylic acid] | 25%
16 | COCC1CN(C)c2cc(Cl)c(OC)c(C(=O)O)c2O1 (stereo not drawn) [Compound A-35, 6-Chloro-7-methoxy-2-(methoxymethyl)-4-methyl-3,4-dihydro-2H-1,4-benzoxazine-8-carboxylic acid] | 21%

Same assay, conditions: 40 min, 100 μM of test compound, tubocurarine 115 nM, after 40 mins of compound exposure, read-out: Point increase (%): percentage increase of initial force that was restored

Row | SMILES | activation at 100 µM
17 | COc1c(Cl)cc2c(c1C(=O)O)OCCN2Cc1nccs1 [Compound A-43, 6-Chloro-7-methoxy-4-[(1,3-thiazol-2-yl)methyl]-3,4-dihydro-2H-1,4-benzoxazine-8-carboxylic acid] | 14%
18 | O=C(O)c1c(F)c(Cl)cc2c1OCCN2Cc1ccccc1 [Compound A-22, 4-Benzyl-6-chloro-7-fluoro-3,4-dihydro-2H-1,4-benzoxazine-8-carboxylic acid] | 15%
19 | COc1c(Cl)cc2c(c1C(=O)O)OCCN2CCCc1nccs1 [Compound A-47, 6-Chloro-7-methoxy-4-[3-(1,3-thiazol-2-yl)propyl]-3,4-dihydro-2H-1,4-benzoxazine-8-carboxylic acid] | 14%

Same assay, conditions: 40 min, read-out: Point increase (%): percentage increase of initial force that was restored

Row | SMILES | activation at 100 µM | activation at 50 µM | activation at 25 µM | activation at 10 µM
20 | O=C(O)c1c(Cl)c(Cl)cc2c1OCCN2Cc1ccccc1 [Compound A-41, 4-Benzyl-6,7-dichloro-3,4-dihydro-2H-1,4-benzoxazine-8-carboxylic acid] | 28% |  |  | 
21 | O=C(O)c1c(F)c(Cl)cc2c1OCCCN2 [Compound A-15, 7-Chloro-8-fluoro-2,3,4,5-tetrahydro-1,5-benzoxazepine-9-carboxylic acid] |  | 51% |  | 
22 | Cc1c(Cl)cc2c(c1C(=O)O)OCCN2C [Compound A-48, 6-chloro-4,7-dimethyl-3,4-dihydro-2H-1,4-benzoxazine-8-carboxylic acid] |  |  | 23% | 
23 | COc1c(Cl)cc2c(c1C(=O)O)OCCN2Cc1ccccc1 [Compound A-52, 4-Benzyl-6-chloro-7-methoxy-3,4-dihydro-2H-1,4-benzoxazine-8-carboxylic acid] |  |  | 14% | 
24 | COc1c(Cl)cc2c(c1C(=O)O)N(C)CCO2 [Compound A-10, 7-Chloro-6-methoxy-4-methyl-3,4-dihydro-2H-1,4-benzoxazine-5-carboxylic acid] |  |  |  | 36%
25 | COc1c(Cl)cc2c(c1C(=O)O)OCCCN2C [Compound A-12, 7-Chloro-8-methoxy-5-methyl-2,3,4,5-tetrahydro-1,5-benzoxazepine-9-carboxylic acid] |  | 54% |  | 
26 | O=C(O)c1c(F)c(Cl)cc2c1N(Cc1ccccc1)CCO2 [Compound A-45, 4-Benzyl-7-chloro-6-fluoro-3,4-dihydro-2H-1,4-benzoxazine-5-carboxylic acid] |  |  |  | 43%
27 | COc1c(Cl)c(F)c2c(c1C(=O)O)OCCN2C [Compound A-44, 6-Chloro-5-fluoro-7-methoxy-4-methyl-3,4-dihydro-2H-1,4-benzoxazine-8-carboxylic acid] |  |  | 35% | 
28 | CC(C)Oc1c(Cl)cc2c(c1C(=O)O)OCCN2C [Compound A-24, 6-Chloro-4-methyl-7-(propan-2-yloxy)-3,4-dihydro-2H-1,4-benzoxazine-8-carboxylic acid] |  | 34% |  | 
29 | CSc1c(Cl)cc2c(c1C(=O)O)OCCN2C [Compound A-26, 6-Chloro-4-methyl-7-(methylsulfanyl)-3,4-dihydro-2H-1,4-benzoxazine-8-carboxylic acid] |  |  | 28% | 
30 | COc1c(C)cc2c(c1C(=O)O)OCCN2C [Compound A-31, 7-Methoxy-4,6-dimethyl-3,4-dihydro-2H-1,4-benzoxazine-8-carboxylic acid] |  | 32% |  | 
